According to patent US20110046185A1, “Arylchalcogenoarylalkyl-substituted imidazolidine-2,4-diones, process for preparation thereof, medicaments comprising these compounds and use thereof” (SANOFI-AVENTIS, priority 2008, published 2011):
Read-outs that look alike come from different tables or passages of the source.

Experiments:
hCB2R = target: T1, hCB2R (Homo sapiens, UniProt P34972); test: In vitro functional FLIPR assay with recombinant HEK293 cells, cannabinoid 2 receptor; type: cell-based; details: recombinant HEK293 cells expressing CB2 and Galpha16; Ca2+ change vs reference agonist
T1 construct: expressed in transfected cells; host or cells: HEK293
Procedure: (§1) Function-testing assays were performed by means of the FLIPR technique (“Fluorometric Imaging Plate Reader”, Molecular Devices Corp.).
(§2) To this end, ligand-induced changes in the intracellular concentration of Ca^2+ in recombinant HEK293 cells, which expressed both a cannabinoid receptor (CB1 or CB2) and G-protein Galpha16, were determined. For the studies, cells were sown into 96-well microtiter plates (60 000 cells/well) and left to grow overnight. The medium was removed and the cells were incubated in buffer which contained the fluorescent dye Fluo-4. After this loading with dye, the cells were washed, test substance was added dissolved in buffer, the mixture was incubated for 20 minutes, a known cannabinoid receptor agonist as a reference agonist was added in buffer and, finally, the changes in the intracellular Ca^2+ concentration were measured in the FLIPR unit.
(§3) Results were presented as the percentage change relative to the control (0%: analogous experiment without test substance and without reference agonist, i.e. only with buffer; 100%: analogous experiment without test substance, but with reference agonist in excess), and used to calculate dose/action curves, and IC50 values were determined.

hCB1R [1] = target: T2, hCB1R (Homo sapiens, UniProt P21554); test: Binding to the CB1 receptor ([3H]-SR141716A displacement, CHO-K1/cannabinoid CB1 protein); design: expressed in transfected cells
Procedure: Test compounds: The compounds (3 μl, 10 mM, 100% DMSO), pipetted into 96-well PP microtiter plates, were diluted with 27 μl of 100% DMSO (dimethyl sulfoxide). Proceeding from this solution, further 3-fold dilution steps were undertaken by transferring 10 μl in each case to a new PP microtiter plate and adding a further 20 μl of 100% DMSO. In each case 6 μl of these solutions were transferred into new 96-well PP microtiter plates and made up with 144 μl of assay buffer. The end concentrations ranged from 10 μM to 0.005 μM.
Negative control: AM 251, dissolved in assay buffer with 1% DMSO, was added to the dilution series in the microtiter plates as a control. The end concentration was 1 μM.
Blank control: assay buffer with 1% DMSO was added to the dilution series of the microtiter plates as a blank control.
The values were calculated using the corrected raw data.
The values reported were obtained as average values of a double determination. The IC50 values were calculated from the measurements with the program Xlfit, formula 205. Ki values were obtained from the IC50 and Kd values utilizing the Cheng-Prusoff equation: […]
Literature: Cheng, Y.-C., and Prusoff, W. H. (1973) Biochem. Pharmacol 22, 3099-3108 Results: Ki values of example compounds;

hCB1R [2] = target: T2, hCB1R; test: In vitro functional FLIPR assay with recombinant HEK293 cells, cannabinoid 1 receptor; type: cell-based; design: expressed in transfected cells; host or cells: HEK293; details: recombinant HEK293 cells expressing CB1 and Galpha16; Ca2+ change vs reference agonist
Procedure: as §1, §2, §3

[3] = [3H]-SR141716A 0.5 nM, Ki from IC50 by Cheng-Prusoff, average of double determination, read-out: hCB1R, binding Ki

T1 sequence (P34972 whole entry): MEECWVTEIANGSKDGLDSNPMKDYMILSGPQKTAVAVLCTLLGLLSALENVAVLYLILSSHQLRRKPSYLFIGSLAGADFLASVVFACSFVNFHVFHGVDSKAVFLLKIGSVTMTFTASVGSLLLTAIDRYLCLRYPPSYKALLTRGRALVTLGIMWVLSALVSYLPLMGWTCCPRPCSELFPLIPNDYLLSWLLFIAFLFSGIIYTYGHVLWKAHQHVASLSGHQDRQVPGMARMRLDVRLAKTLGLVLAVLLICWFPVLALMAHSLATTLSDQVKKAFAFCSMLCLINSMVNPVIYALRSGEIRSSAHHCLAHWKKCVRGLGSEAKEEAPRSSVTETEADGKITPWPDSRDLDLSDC
T2 sequence (P21554 whole entry): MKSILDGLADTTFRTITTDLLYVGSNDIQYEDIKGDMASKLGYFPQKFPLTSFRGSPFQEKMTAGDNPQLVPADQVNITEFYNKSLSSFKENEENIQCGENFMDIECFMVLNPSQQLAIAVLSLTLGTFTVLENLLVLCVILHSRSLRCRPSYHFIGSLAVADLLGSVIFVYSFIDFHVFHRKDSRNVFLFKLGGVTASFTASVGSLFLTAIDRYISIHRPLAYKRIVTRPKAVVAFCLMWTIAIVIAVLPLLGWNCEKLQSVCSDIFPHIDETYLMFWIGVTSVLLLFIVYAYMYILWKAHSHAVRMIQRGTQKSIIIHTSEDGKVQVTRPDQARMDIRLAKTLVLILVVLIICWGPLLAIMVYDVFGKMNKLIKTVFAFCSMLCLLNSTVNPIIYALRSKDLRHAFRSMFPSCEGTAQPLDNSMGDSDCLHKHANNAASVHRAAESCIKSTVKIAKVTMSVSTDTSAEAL

SMILES | IC50 (hCB2R) [nM] | Ki (hCB1R [1]; [3]) [nM] | IC50 (hCB1R [2]) [nM] | Ki (hCB1R [1]) [nM]
CC1(C)C(=O)N(c2ccc(C#N)c(C(F)(F)F)c2)C(=O)N1Cc1ccccc1Oc1ccc(C(=O)O)cc1 [Example 97, 4-{2-[3-(4-Cyano-3-trifluoromethylphenyl)-5,5-dimethyl-2,4-dioxo-imidazolidin-1-ylmethyl]phenoxy}benzoic acid] | > 10000 | 533 |  | 
CC1(C)C(=O)N(c2cccc(C(F)(F)F)c2)C(=O)N1Cc1ccccc1Oc1ccccc1 [Example 8] |  | 249 |  | 
CC1(C)C(=O)N(c2ccc(C#N)nc2)C(=O)N1Cc1ccccc1Oc1ccccc1 [Example 86] |  | 311 |  | 
CC1(C)C(=O)N(c2ccc(C#N)c(C(F)(F)F)c2)C(=O)N1Cc1ccccc1[S+]([O-])c1ccc(Cl)cc1 (centres unmarked) [Example 107, 4-{3-[2-(4-Chlorobenzenesulfinyl)benzyl]-4,4-dimethyl-2,5-dioxoimidazolidin-1-yl}-2-trifluoromethylbenzonitrile] |  | 232 |  | 
CC1(C)C(=O)N(c2ccnc(C(F)(F)F)c2)C(=O)N1Cc1ccccc1Oc1ccccc1 [Example 83] |  | 24 |  | 
CC1(C)C(=O)N(c2ccnc(Cl)c2)C(=O)N1Cc1ccccc1Oc1ccccc1 [Example 82] | > 10000 | 2 | 100 | 
CC1(C)C(=O)N(c2ccc(C#N)c(C(F)(F)F)c2)C(=O)N1Cc1ccccc1Oc1ccc(C(N)=O)cc1 [Example 98, 4-{2-[3-(4-Cyano-3-trifluoromethylphenyl)-5,5-dimethyl-2,4-dioxo-imidazolidin-1-ylmethyl]phenoxy}benzamide] | > 10000 |  | 507 | 
CC1(C)C(=O)N(c2ccc(C#N)c(C(F)(F)F)c2)C(=O)N1Cc1ccccc1Sc1ccc(Cl)cc1 [Example 105, 4-{3-[2-(4-Chlorophenylsulfanyl)benzyl]-4,4-dimethyl-2,5-dioxoimidazolidin-1-yl}-2-trifluoromethylbenzonitrile] | > 10000 |  |  | 44
CC1(C)C(=O)N(c2cccc(SC(F)(F)F)c2)C(=O)N1Cc1ccccc1Oc1ccccc1 [Example 14] |  | 289 |  | 
COC(=O)c1ccc(Oc2ccccc2CN2C(=O)N(c3ccc(C#N)c(C(F)(F)F)c3)C(=O)C2(C)C)cc1 [Example 96] |  |  | 152 | 22
CC1(C)C(=O)N(c2cc(C(F)(F)F)ccc2F)C(=O)N1Cc1ccccc1Oc1ccccc1 [Example 12] |  | 284 |  | 
